From US12180508B2, “Method of preparing in vitro-matured human intestinal organoids and use thereof” (KOREA RESEARCH INSTITUTE OF BIOSCIENCE AND BIOTECHNOLOGY, priority 2018, dated 2024) come the findings set out here.

One data set has as its system p-STAT3 (Y705). Nature of the data set: Phospho-STAT3 immunostaining of hIOs. The data set is classed as cell-based, human. The settings on record: IL-2 treated Mat-hIOs; Stattic 1 μM or S3I-201 10 μM. On the procedure:
(§1) An immunofluorescence analysis was performed according to a known method (Kwak et al., Biochemical and biophysical research communications 457, 554-560, 2015). In detail, hPSCs and definitive endodermal cells were fixed in 4% paraformaldehyde (PFA) and then permeabilized with PBS containing 0.1% Triton X-100.
(§2) hIOs and tissues were fixed, cryo-protected in sucrose, and frozen using an optimal-cutting-temperature (OCT) compound (Sakura Finetek, Tokyo, Japan). Then, frozen sections were cut at a thickness of 10-20 μm using a cryostat microtome at −20° C. and permeabilized with PBS containing 0.1% Triton X-100 for immunofluorescence analysis.
(§3) In detail, after being blocked with 4% BSA, cells were incubated with primary antibodies at 4° C. overnight, and then incubated with secondary antibodies for 1 hr at room temperature. The used primary antibodies are as in Table 2. Paraffin sections were deparaffinized, subjected to antigen retrieval, and stained in a similar manner to OCT sections. DAPI was added to visualize nuclei. Slides were examined with an Axiovert 200M microscope (Carl Zeiss, Gottingen, Germany) or a fluorescence microscope (IX51, Olympus, Japan).

A further data set has as its system hPSC-derived hIOs. Put plainly: Growth / size (surface area, budding) of hPSC-derived hIOs. The data set is classed as cell-based, human. The settings on record: for stimulation of IL-2 on hIO growth in presence of inhibitor: with IL-2, S31-201 10 μM, Stattic 1 μM, Rapamycin 10 nM; for growth of hIOs with many crypt-like budding structures: treatment with STAT3 activators. Here is the method:
To estimate the size of hIOs, surface areas of horizontal cross-sections of hIOs were measured.

The target in another data set is T1, CFTR (Homo sapiens, UniProt P13569).
T1 construct: To examine the function of CFTR present in mature intestine epithelial cells in organoid models; endogenous in cells; host or cells: hPSC-derived human intestinal organoids (control, co-cultured with Jurkat T cells, or IL-2-treated)
T1 sequence (P13569 whole entry): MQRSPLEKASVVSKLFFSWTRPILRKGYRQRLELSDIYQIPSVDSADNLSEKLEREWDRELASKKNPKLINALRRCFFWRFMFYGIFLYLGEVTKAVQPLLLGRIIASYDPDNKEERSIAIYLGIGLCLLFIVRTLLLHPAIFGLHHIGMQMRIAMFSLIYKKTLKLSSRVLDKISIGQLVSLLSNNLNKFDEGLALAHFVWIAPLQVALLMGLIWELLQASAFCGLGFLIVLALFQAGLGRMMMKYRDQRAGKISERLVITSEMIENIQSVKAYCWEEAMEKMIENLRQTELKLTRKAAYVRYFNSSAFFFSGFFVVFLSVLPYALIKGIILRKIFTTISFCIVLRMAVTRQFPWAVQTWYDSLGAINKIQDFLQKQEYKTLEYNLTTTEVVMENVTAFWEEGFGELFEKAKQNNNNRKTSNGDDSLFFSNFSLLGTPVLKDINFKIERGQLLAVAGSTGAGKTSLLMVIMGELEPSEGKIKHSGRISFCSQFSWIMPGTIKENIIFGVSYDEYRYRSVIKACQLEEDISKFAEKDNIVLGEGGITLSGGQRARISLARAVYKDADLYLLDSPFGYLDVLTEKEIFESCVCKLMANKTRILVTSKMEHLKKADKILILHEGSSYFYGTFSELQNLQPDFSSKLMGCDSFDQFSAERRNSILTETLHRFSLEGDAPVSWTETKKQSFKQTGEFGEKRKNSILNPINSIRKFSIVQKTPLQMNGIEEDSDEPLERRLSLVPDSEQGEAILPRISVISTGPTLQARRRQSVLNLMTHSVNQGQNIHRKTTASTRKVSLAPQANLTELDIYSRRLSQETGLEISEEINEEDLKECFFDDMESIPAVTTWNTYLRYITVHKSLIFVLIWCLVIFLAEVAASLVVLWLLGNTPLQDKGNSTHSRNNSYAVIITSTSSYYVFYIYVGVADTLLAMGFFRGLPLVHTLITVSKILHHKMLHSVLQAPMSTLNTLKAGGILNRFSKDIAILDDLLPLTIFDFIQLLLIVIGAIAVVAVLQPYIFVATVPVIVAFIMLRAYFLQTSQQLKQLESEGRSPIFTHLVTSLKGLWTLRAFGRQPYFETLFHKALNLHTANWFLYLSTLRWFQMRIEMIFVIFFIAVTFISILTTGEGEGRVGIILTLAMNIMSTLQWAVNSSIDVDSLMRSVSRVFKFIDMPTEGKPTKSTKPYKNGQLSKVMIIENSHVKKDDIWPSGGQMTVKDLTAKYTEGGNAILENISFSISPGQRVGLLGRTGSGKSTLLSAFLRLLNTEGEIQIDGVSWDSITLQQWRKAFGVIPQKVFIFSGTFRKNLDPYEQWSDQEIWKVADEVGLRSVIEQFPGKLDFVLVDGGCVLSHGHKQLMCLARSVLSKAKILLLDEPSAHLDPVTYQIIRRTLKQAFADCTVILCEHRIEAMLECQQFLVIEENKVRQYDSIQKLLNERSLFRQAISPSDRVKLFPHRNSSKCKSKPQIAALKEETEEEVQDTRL
Nature of the data set: Forskolin-induced organoid swelling assay (CFTR function). The settings on record: mature organoids, forskolin 25 uM, 120 minutes. Type of data set: cell-based. Here is the method:
To examine the function of CFTR present in mature intestine epithelial cells in organoid models, forskolin-induced organoid swelling assay was performed. Control and co-cultured or IL-2-treated hIOs (n=4) were treated with forskolin (25 uM, Merckmillopore), and then morphological observation was performed for 120 min at 20 min intervals through live imaging function of a microscope (IX83, Olympus). CFTR inhibitors (CFTRinh172, GlyH101) were co-treated, and morphological observation was performed for the same time. The size of organoids was calculated every hour, and mean values thereof were used to plot a graph.

Data set [1] deals with hIOs. Nature of the data set: qPCR of intestinal maturation markers in hIOs. The settings on record: colivelin treatment compared with control hIOs. The data set is classed as cell-based, human. On the procedure:
Total RNA was extracted from cells using an RNeasy Kit (Qiagen), and reverse-transcribed using a Superscript III cDNA synthesis kit (Invitrogen). qRT-PCR was performed by a method disclosed in a 7500 Fast Real-time PCR system (Applied Biosystems, Foster City, CA, USA) (Cho et al., Oncotarget 6, 23837-23844, 2015). All experiments were performed in triplicate, and CT value of each target gene was calculated using a software provided by the manufacturer. Nucleotide sequences of the used primers are as in Table 1.

Data set [2] concerns hIOs. Nature of the data set: Immunofluorescence staining of marker proteins in hIOs. Particulars: colivelin treatment. Type of data set: cell-based, human. Here is the method:
as §1, §2, §3

Data set [3] addresses P-glycoprotein (P-gp)/MDR1 (Homo sapiens, UniProt P08183). The settings on record: paclitaxel 10 μM basolateral, 2 hr incubation.

Like-named read-outs stand apart in the source and are kept apart here.

Chain of P-glycoprotein (P-gp)/MDR1 (P08183 whole entry): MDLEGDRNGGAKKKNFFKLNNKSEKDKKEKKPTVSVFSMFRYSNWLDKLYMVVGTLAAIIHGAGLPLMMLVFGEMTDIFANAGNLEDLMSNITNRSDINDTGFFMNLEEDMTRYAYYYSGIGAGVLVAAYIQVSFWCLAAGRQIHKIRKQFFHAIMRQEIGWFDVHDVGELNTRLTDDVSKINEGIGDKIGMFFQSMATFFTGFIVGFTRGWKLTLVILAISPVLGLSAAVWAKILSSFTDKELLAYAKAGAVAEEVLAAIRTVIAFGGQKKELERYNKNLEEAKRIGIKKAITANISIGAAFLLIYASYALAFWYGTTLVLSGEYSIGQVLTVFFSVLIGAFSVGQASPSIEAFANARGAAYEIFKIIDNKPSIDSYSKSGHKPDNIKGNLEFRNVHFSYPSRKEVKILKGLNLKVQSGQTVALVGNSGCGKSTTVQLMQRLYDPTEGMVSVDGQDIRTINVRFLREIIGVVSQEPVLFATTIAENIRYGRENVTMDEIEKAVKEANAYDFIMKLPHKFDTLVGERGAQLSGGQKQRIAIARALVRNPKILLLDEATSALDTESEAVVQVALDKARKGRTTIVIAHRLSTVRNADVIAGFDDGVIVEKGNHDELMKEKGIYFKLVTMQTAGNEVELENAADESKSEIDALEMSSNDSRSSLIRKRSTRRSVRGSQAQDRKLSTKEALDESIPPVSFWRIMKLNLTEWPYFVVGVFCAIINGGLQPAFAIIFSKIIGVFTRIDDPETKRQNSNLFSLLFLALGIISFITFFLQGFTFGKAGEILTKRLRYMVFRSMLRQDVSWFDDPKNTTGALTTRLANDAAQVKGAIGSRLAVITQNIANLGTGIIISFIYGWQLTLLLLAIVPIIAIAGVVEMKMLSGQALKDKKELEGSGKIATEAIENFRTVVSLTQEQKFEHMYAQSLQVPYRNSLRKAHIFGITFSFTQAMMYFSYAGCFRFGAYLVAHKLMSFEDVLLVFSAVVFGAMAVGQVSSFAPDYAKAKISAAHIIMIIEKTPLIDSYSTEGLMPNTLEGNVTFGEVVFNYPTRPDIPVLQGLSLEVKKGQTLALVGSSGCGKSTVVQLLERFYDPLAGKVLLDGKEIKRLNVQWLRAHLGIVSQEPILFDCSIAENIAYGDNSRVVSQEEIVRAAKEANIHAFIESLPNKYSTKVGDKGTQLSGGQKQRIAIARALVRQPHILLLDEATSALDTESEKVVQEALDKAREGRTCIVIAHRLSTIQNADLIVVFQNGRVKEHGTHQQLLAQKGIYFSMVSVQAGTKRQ

As for `O=[N+]([O-])c1ccc2c(c1)S(=O)(=O)C=C2` [Stattic], the “phosphorylation of STAT3 at tyrosine 705 (Y705)” value in the data set with p-STAT3 (Y705) was “blocked”. Moreover, in the data set with hPSC-derived hIOs, the “stimulation of IL-2 on hIO growth in presence of inhibitor” value is “prevented”.

Consider `Cc1ccc(S(=O)(=O)OCC(=O)Nc2ccc(C(=O)O)c(O)c2)cc1` [S3I-201], for which the “phosphorylation of STAT3 at tyrosine 705 (Y705)” value with p-STAT3 (Y705) is recorded as “blocked”. In the data set on hPSC-derived hIOs, the “stimulation of IL-2 on hIO growth in presence of inhibitor” value was “prevented”.

`O=C(O)c1ccc(/C=C2\SC(=S)N(c3cccc(C(F)(F)F)c3)C2=O)cc1` [CFTRinh172]: at CFTR, the “forskolin-induced swelling effect under CFTR inhibitor” value was “completely blocked”.

With `O=C(CNc1ccc2ccccc2c1)N/N=C/c1cc(Br)c(O)c(Br)c1O` [GlyH101], at CFTR, the “forskolin-induced swelling effect under CFTR inhibitor” value was “completely blocked”.

For Colivelin, the “expression of intestinal maturation markers” value in the data set with hIOs [1] is on record as “increased”. In addition, the “growth of hIOs with many crypt-like budding structures” value in the data set with hPSC-derived hIOs was “promoted the growth”. Besides, in the data set on hPSC-derived hIOs (various concentrations of colivelin), the “size of hIO” value is reported as “increased”. The “protein expression of Ki-67, OLFM4, MUC13 and KRT20” value with hIOs [2] was “increased”.

For the molecule `CC(=O)O[C@H]1C(=O)[C@@]2(C)[C@H]([C@H](OC(=O)c3ccccc3)[C@]3(O)C[C@H](OC(=O)[C@H](O)[C@@H](NC(=O)c4ccccc4)c4ccccc4)C(C)=C1C3(C)C)[C@]1(OC(C)=O)CO[C@@H]1C[C@@H]2O` [paclitaxel], the “concentration of paclitaxel at the apical side, increase compared with control hIOs” value in data set [3] (IL-2-treated hIOs) is approximately 3 fold; in data set [3] (co-cultured hIOs) it was “approximately 2.3 fold”.

B1: IL-22: another known STAT3 activator, cytokine (protein, UniProt Q9GZX6 34-179, looked up)
Interleukin-22: APISSHCRLDKSNFQQPYITNRTFMLAKEASLADNNTDVRLIGEKLFHGVSMSERCYLMKQVLNFTLEEVLFPQSDRFQPYMQEVVPFLARLSNRLSTCHIEGDDLHIQRNVQKLKDTVKKLGESGEIKAIGELDLLFMSLRNACI
B1: in the data set on hPSC-derived hIOs, the “growth of hIOs with many crypt-like budding structures” value is “promoted the growth”.
